The source of these data is patent US20250197399A1, “COMPOUNDS, COMPOSITIONS, AND METHODS” (Tenvie Therapeutics, Inc., priority 2022, published 2025).

Read-outs that look alike come from different tables or passages of the source.

The assay deals with NLRP3. As to the kind of experiment: IL-1β secretion assay in PMA-differentiated, LPS/nigericin-stimulated THP-1 cells (ELISA). The assay is classed as cell-based. The conditions noted are these: 25 ng/mL LPS then nigericin, IL-1β in supernatant. The procedure: Compounds as provided herein were tested in the following assay. Cell culture medium employed contained RPMI 1640 medium (89%), FBS (10%), Pen/Strep (1%), and 2-mercaptoethanol (0.05 mM). Freezing medium was made up of 90% FBS and 10% DMSO. THP-1 cells were removed from the liquid nitrogen and placed into a 37° C. water bath to thaw, until signs of ice dissipated. The cells were then added to 9 mL of warm cell culture medium and centrifuged for 5 minutes at 1000 rpm. The supernatant was discarded, and the cells were resuspended in new cell culture medium. THP-1 cells were then split and cultured in the cell culture medium, being passaged every 2-3 days with the cell density will be maintained between 5×10^5 and 1.5×10^6 viable cells/mL.
PMA was dissolved in DMSO to make a stock solution at 5 mg/ml and stored in 10 μl aliquots at −20° C. for single use. PMA is added to normal growth medium. LPS was diluted with 1 mL of water solution to provide a 1 mg/mL stock solution and stored in 15 μL aliquots at −20° C. for single use. Nigericin is diluted in ice cold 100% ethanol to 5 mg/ml (6.7 mM) and stored in 75 μL aliquots at −20° C. for single use. Serum-free media contains RPMI 1640 medium (99%), Pen/Strep (1%), and 2-mercaptoethanol (0.05 mM). The two control conditions used to qualify and normalize test compound dose-response curves were as follows: High Control=25 ng/mL LPS, […], 0.5% DMSO, Low Control=25 ng/mL, LPS, 0.5% DMSO.
THP-1 cells were diluted to provide a suspension at a concentration of 1.0×10^6 cells/mL with the total volume of suspension required to enable the desired number of assay plates. The growth media was supplemented with PMA (5 ng/mL final concentration) and the cells were incubated at 37° C. under a humidified atmosphere of 5% CO2 for 40 h.
All media was carefully aspirated from each culture flask. The cells were washed carefully with 1×DPBS. The cells were then briefly digested with trypsin LE for 5 minutes at 23° C. and immediately resuspended in cell growth media. After resuspension, the cells were centrifuged at 1000 rpm for 3 minutes and the supernatant was discarded. The cells were resuspended in DPBS and once again centrifuged at 1000 rpm for 5 minutes. The supernatant was discarded and the cell pellet was resuspended in serum-free media supplemented with LPS (25 ng/mL final concentration) to enable the distribution of 30K THP-1 cells within 45 μL of media into each well of 384-well PDL-coated plates. The 384-well plates were then incubated at 37° C. under a humidified atmosphere of 5% CO2 for 2 h. Following this period, test compounds were dispensed by Tecan across the desired concentration range with all wells normalized to a final 0.5% DMSO concentration. The plates were then then incubated at 37° C. under a humidified atmosphere of 5% CO2 for 1 h. Following this period, 5 μL of the 5 mg/mL nigericin stock solution was added to each of the appropriate wells and plates were centrifuged at 1000 rpm for 30 seconds. The plates were the immediately reintroduced to the incubator at 37° C. under a humidified atmosphere of 5% CO2 for 2 h. After this time, 35 μL/well of supernatant was collected and transferred into v-bottom plate and centrifuged at 1000 rpm for 1 minute. These supernatant aliquots were analyzed using an IL-Iβ detection kit as described below. If needed, the test samples could be snap frozen and stored at −80° C. until analyzed.
To prepare each ELISA plate, capture antibody (mAb Mt175) was diluted with PBS to a final concentration of […] and then 20 μL of this solution was added to each well of the ELISA plate. Each plate was allowed to incubate overnight at 4° C. The next day, the capture antibody solution was removed and discarded. Each ELISA plate was washed 4 times with PBST followed by the addition of 25 µL/well of blocking buffer (Licor-927-40010) supplemented with 0.1% Tween 20. Each ELISA plate was then allowed to incubate for 1 hour at 23° C. […]

Setting [1] is: Homo sapiens, THP-1, THP-1 cells, read-out: Activity.
The mark [2] stands for this setting: Homo sapiens, THP-1, THP-1 cells, read-out: Activity (IC50 class).
Where [3] appears, read: THP-1 cells, read-out: Activity.
Where [4] appears, read: THP-1 cells, read-out: Activity (IC50 class).

`O=C(CN1C[C@]2(C[C@H]2F)c2c(ccc(Cl)c2F)C1=O)Nc1ncc2cn[nH]c2n1` (single isomer, unassigned) [Example 45, 2-[(2′s,4r)-6-chloro-2′,5-difluoro-1-oxospiro[3H-isoquinoline-4,1′-cyclopropane]-2-yl]-N-(1H-pyrazolo[3,4-d]pyrimidin-6-yl)acetamide]: the IC50 was 0.048 µM under setting [1] and under 1 µM under setting [2].
Regarding `O=C(CN1CC2(CC2(F)F)c2cc(C(F)(F)F)ccc2C1=O)Nc1ncc(F)cn1` (single isomer, unassigned) [Example 41, N-(5-fluoropyrimidin-2-yl)-2-[1′,1′-difluoro-6-(trifluoromethyl)-1-oxospiro[3H-isoquinoline-4,2′-cyclopropane]-2-yl]acetamide], the IC50 by setting is: under setting [3], 0.067 µM; under setting [4], under 1 µM.
The matching figures for `Cc1cnc(NC(=O)CN2CC3(CC3(F)F)c3cc(Br)ccc3C2=O)nc1` (single isomer, unassigned) [Example 19, N-(5-methylpyrimidin-2-yl)-2-[6-bromo-1′,1′-difluoro-1-oxospiro[3H-isoquinoline-4,2′-cyclopropane]-2-yl]acetamide]: 0.065 µM and under 1 µM.
With `Cc1cnc(NC(=O)CN2C[C@]3(C[C@H]3F)c3cc(C4(F)CC4)ccc3C2=O)nc1` [Example 2, 2-[(2′R,4S)-2′-fluoro-6-(1-fluorocyclopropyl)-1-oxospiro[3H-isoquinoline-4,1′-cyclopropane]-2-yl]-N-(5-methylpyrimidin-2-yl)acetamide], the IC50 under setting [1] is 0.018 µM and the IC50 under setting [2] is under 1 µM.
As to `Cc1cnc(NC(=O)CN2CC3(CC3(F)F)c3cc(C4(F)CC4)ccc3C2=O)nc1` (single isomer, unassigned) [Example 24, N-(5-methylpyrimidin-2-yl)-2-[1′,1′-difluoro-6-(1-fluorocyclopropyl)-1-oxospiro[3H-isoquinoline-4,2′-cyclopropane]-2-yl]acetamide], the IC50 by setting is: under setting [2], 1 to 10 µM; under setting [3], 6.09 µM.
For `O=C(CN1C[C@]2(C[C@H]2F)c2c(ccc(Cl)c2F)C1=O)Nc1ncc(Cl)cn1` (single isomer, unassigned) [Example 43, 2-[(2′s,4r)-6-chloro-2′,5-difluoro-1-oxospiro[3H-isoquinoline-4,1′-cyclopropane]-2-yl]-N-(5-chloropyrimidin-2-yl)acetamide], the IC50 is, setting by setting: under setting [1], 0.051 µM; under setting [2], under 1 µM.
Regarding `O=C(CN1CC2(CC2)c2cc(Br)ccc2C1=O)Nc1ncc2c(C(F)(F)F)n[nH]c2n1` [Example 58, 2-(6-bromo-1-oxospiro[3H-isoquinoline-4,1′-cyclopropane]-2-yl)-N-[3-(trifluoromethyl)-1H-pyrazolo[3,4-d]pyrimidin-6-yl]acetamide], the IC50 reads like this: under setting [1], 0.279 µM; under setting [2], under 1 µM.
As to `O=C(CN1C[C@]2(C[C@H]2F)c2cc(C(F)(F)F)ccc2C1=O)Nc1nc2ccccn2n1` (single isomer, unassigned) [Example 49, 2-[(2′s,4r)-2′-fluoro-1-oxo-6-(trifluoromethyl)spiro[3H-isoquinoline-4,1′-cyclopropane]-2-yl]-N-([1,2,4]triazolo[1,5-a]pyridin-2-yl)acetamide], the IC50 by setting is: under setting [2], 1 to 10 µM; under setting [3], 1.96 µM.
Turning to `C[C@]1(O)C[C@@H](NC(=O)CN2CC3(CC3(F)F)c3cc(C(F)(F)F)ccc3C2=O)C1` (single isomer, unassigned) [Example 52, 2-[1′,1′-difluoro-1-oxo-6-(trifluoromethyl)spiro[3H-isoquinoline-4,2′-cyclopropane]-2-yl]-N-(3-cis-hydroxy-3-methylcyclobutyl)acetamide], the IC50 under setting [3] came out at 22.4 µM and the IC50 under setting [4] was over 10 µM.
Turning to `O=C(CN1C[C@]2(C[C@H]2F)c2cc(C(F)(F)F)ccc2C1=O)Nc1ncc2cn[nH]c2n1` (single isomer, unassigned) [Example 47, 2-[(2′s,4r)-2′-fluoro-1-oxo-6-(trifluoromethyl)spiro[3H-isoquinoline-4,1′-cyclopropane]-2-yl]-N-(1H-pyrazolo[3,4-d]pyrimidin-6-yl)acetamide], the IC50 reads like this: under setting [2], under 1 µM; under setting [3], 0.231 µM.
As for `C[C@]1(O)C[C@@H](NC(=O)CN2C[C@]3(C[C@H]3F)c3c(ccc(C4CC4)c3F)C2=O)C1` [Example 6, N-(3-cis-hydroxy-3-methylcyclobutyl)-2-[(2′s,4r)-2′,5-difluoro-6-cyclopropyl-1-oxospiro[3H-isoquinoline-4,1′-cyclopropane]-2-yl]acetamide], the IC50 is, setting by setting: under setting [1], 0.072 µM; under setting [2], under 1 µM.
The matching figures for `O=C(CN1CC2(CC2)c2c(ccc(Br)c2F)C1=O)Nc1ccc2nn[nH]c2c1` [Example 61, N-(3H-benzotriazol-5-yl)-2-(6-bromo-5-fluoro-1-oxospiro[3H-isoquinoline-4,1′-cyclopropane]-2-yl)acetamide]: 0.162 µM and under 1 µM.
As for `O=C(CN1CC2(CC2(F)F)c2cc(Br)ccc2C1=O)Nc1ncc2cn[nH]c2n1` (single isomer, unassigned) [Example 65, 2-(6-bromo-1′,1′-difluoro-1-oxospiro[3H-isoquinoline-4,2′-cyclopropane]-2-yl)-N-(1H-pyrazolo[3,4-d]pyrimidin-6-yl)acetamide], the IC50 under setting [3] was 0.504 µM and the IC50 under setting [4] is under 1 µM.
Turning to `O=C(CN1CC(C(F)(F)F)c2cc(I)ccc2C1=O)Nc1ncc(Cl)cn1` (stereo not drawn) [Example 7, N-(5-chloropyrimidin-2-yl)-2-(6-iodo-1-oxo-4-(trifluoromethyl)-3,4-dihydroisoquinolin-2(1H)-yl)acetamide], the IC50 is, setting by setting: under setting [1], 0.017 µM; under setting [2], under 1 µM.
For the molecule `Cc1cnc(NC(=O)CN2CC(C(F)(F)F)c3cc(C)ccc3C2=O)nc1` (stereo not drawn) [Example 9, 2-(6-methyl-1-oxo-4-(trifluoromethyl)-3,4-dihydroisoquinolin-2(1H)-yl)-N-(5-methylpyrimidin-2-yl)acetamide], the IC50 by setting is: under setting [1], 1.54 µM; under setting [2], 1 to 10 µM.
Consider `O=C(CN1C[C@]2(C[C@H]2F)c2cc(C(F)(F)F)ccc2C1=O)Nc1nc2ccccn2n1` (single isomer, unassigned) [Example 50, 2-[(2′s,4r)-2′-fluoro-1-oxo-6-(trifluoromethyl)spiro[3H-isoquinoline-4,1′-cyclopropane]-2-yl]-N-([1,2,4]triazolo[1,5-a]pyridin-2-yl)acetamide], for which the IC50 under setting [3] worked out at 0.184 µM and the IC50 under setting [4] is under 1 µM.
Regarding `O=C(CN1CC2(CC2)c2cc(Br)ccc2C1=O)Nc1nc2[nH]ncc2cc1F` [Example 59, 2-(6-bromo-1-oxospiro[3H-isoquinoline-4,1′-cyclopropane]-2-yl)-N-[5-fluoro-1H-pyrazolo[3,4-b]pyridin-6-yl]acetamide], the IC50 by setting is: under setting [1], 0.322 µM; under setting [2], under 1 µM.
Turning to `Cc1cnc(NC(=O)CN2CC(C(F)(F)F)c3cc(I)ccc3C2=O)nc1` (stereo not drawn) [Example 8, 2-(6-iodo-1-oxo-4-(trifluoromethyl)-3,4-dihydroisoquinolin-2(1H)-yl)-N-(5-methylpyrimidin-2-yl)acetamide], the IC50 runs as follows: under setting [1], 0.044 µM; under setting [2], under 1 µM.
